Measured values from publication PMC9115112, “A2B adenosine receptor antagonists rescue lymphocyte activity in adenosine-producing patient-derived cancer models” (Journal for Immunotherapy of Cancer, 2022).

Experiments:
[1] = system: healthy donor T cells (PBMCs) and NK cells; test: CFSE proliferation assay with exogenous adenosine; assay type: cell-based, human; conditions: exogenous adenosine 0.1 mM, antagonist 12 µM, 3 days (T) and 6 days (NK)
Method: Freshly isolated PBMCs and NK cells were stained with 5 µM FITC-conjugated carboxyfluorescein succinimidyl ester (CFSE, BioLegend) in phosphate-buffered saline (PBS) (Life Technologies) at room temperature for 5 min. CSFE stained cells were washed with flow cytometer buffer three times. CSFE-labeled healthy PBMCs and NK cells were cultured in 96-well plates with X-VIVO20% and 1% PS for 3 and 6 days, respectively. Healthy PBMCs were incubated with Human T-activator CD3/CD28 beads at 1:4 ratio (Thermo Fisher Scientific) and IL-2 (Novartis) at 100 IU/mL. Healthy donor NK cells were incubated with 1000 IU/mL IL-2 only. 2×10^5 PBMCs and 5×10^4 NK cells were counted for treatment with ADO (Sigma-Aldrich) and 12 μM of A2BAR antagonist at the same day.
Figure 3 Rescue of lymphocyte proliferation by of A2BAR antagonism. Relative proliferation of: (A) CD45RA- CD4 T cells, (B) CD45RA+ CD4 T cells, (C) CD45RA- CD8 T cells, (D) CD45RA+ CD8 T cells, and (E) NK cells, after incubation with exogenous adenosine 0.1 mM and A2BAR antagonist 12 µM for 3 (A–D) and 6 (E) days. (n=10 healthy donors) CD45RA expression differentiates naïve and effector T cells from central and effector memory T cells. Box plots with minimum, first quartile, median, third quartile, and maximum are presented. Unpaired and non-parametric statistical analysis—Mann-Whitney test was performed against untreated control with *p<0.05, **p<0.01, ***p<0.001, and ****p<0.0001. (F–J) Representative CFSE histogram on the corresponding lymphocyte subset. CFSE, carboxyfluorescein succinimidyl ester.

hA2B (A2BAR) = biological target: T1, hA2B (A2BAR) (Homo sapiens, UniProt P29275); test: cAMP assay, NECA-stimulated, HEK-293 cells with transfected A2BAR; assay type: cell-based; conditions: n=3, read-out: Kb hA2B (cAMP production)
T1 construct: expressed in transfected cells; host or cells: HEK-293
T1 sequence (P29275 1-332): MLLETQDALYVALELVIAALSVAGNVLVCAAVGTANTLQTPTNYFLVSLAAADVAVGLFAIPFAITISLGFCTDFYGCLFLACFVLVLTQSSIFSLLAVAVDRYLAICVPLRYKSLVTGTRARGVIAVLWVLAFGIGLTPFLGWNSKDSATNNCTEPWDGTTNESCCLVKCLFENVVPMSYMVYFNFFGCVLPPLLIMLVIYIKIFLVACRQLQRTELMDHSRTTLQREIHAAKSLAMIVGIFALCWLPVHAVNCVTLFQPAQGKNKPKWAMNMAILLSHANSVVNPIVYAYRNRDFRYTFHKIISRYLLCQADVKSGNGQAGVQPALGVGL
Method: Assays were performed in transfected A2BAR using a cyclic AMP (cAMP) enzyme immunoassay kit (Amersham Biosciences) following previously described protocols.[28 30] HEK-293 cells were seeded (10,000 cells/well) in 96-well culture plates and incubated at 37°C in an atmosphere with 5% CO2 in Eagle’s Medium Nutrient Mixture F-12 (EMEM F-12), containing 10% fetal calf serum (FCS) and 1% L-Glutamine. Cells were washed three times with 200 µL assay medium (EMEM-F12 and 25 mM HEPES pH=7.4) and pre-incubated with assay medium containing 30 µM rolipram and test compounds at 37°C for 15 min. Ten µM NECA was incubated for 15 min at 37°C (total incubation time 30 min). Reaction was stopped with lysis buffer supplied in the kit and the enzyme immunoassay was carried out for detection of intracellular cAMP at 450 nm in an Ultra Evolution detector (Tecan). The dose-response curve of NECA-elicited cAMP formation was used to determine the initial choice of A2BAR antagonist concentration (online supplemental figure 2).

[2] = system: healthy donor T cells in MPNST patient-derived sarcoma spheroid; test: Proliferation assay with CD73-expressing patient-derived sarcoma (MPNST) spheroid; assay type: cell-based, human; conditions: antagonist 12 µM, 3 days, endogenous adenosine, n=5 healthy donors
Method: A malignant peripheral nerve sheath tumor (MPNST) patient-derived sarcoma cell line was used to grow spheroid by seeding 1×10^4 cells per well in a 96-well ultra-low attachment plate (Thermo Fisher Scientific) with DMEM-F12 media containing 20% FBS and 1% PS for 5 days. 1×10^5 CSFE-labeled healthy PBMCs, ratio of 10:1, were added to the CD73 expressing, adenosine-producing spheroid at day five. Similar to the proliferation assay with exogenous ADO, CD3/CD28 beads at 1:4 ratio and IL-2 at 100 IU/mL were added. A2BAR antagonism treatment at 12 μM was added at the same day.
Figure 5 Rescue of lymphocyte proliferation in sarcoma spheroids by A2BAR antagonism. Relative proliferation of: (A) CD45RA- CD4 T cells, (B) CD45RA+CD4 T cells, (C) CD45RA- CD8 T cells and (D) CD45RA+ CD8 T cells after antagonist 12 µM treatment for 3 days in MPNST patient-derived sarcoma spheroid. (n=5 healthy donors) Box plots with minimum, first quartile, median, third quartile, and maximum are presented. Unpaired and non-parametric statistical analysis—Mann-Whitney test was performed against untreated control with *p<0.05, **p<0.01, ***p<0.001, and ****p<0.0001. (E) Representative CSFE dilution of CD45RA+ CD8 T cells. CD45RA expression differentiates naïve and effector T cells from central and effector memory T cells. MPNST, malignant peripheral nerve sheath tumors; UPS, undifferentiated pleomorphic sarcoma.

[3] = system: CD4 and CD8 T cells (healthy donor PBMCs); test: IFNy and perforin cytokine production assay, with CD69 expression (flow cytometry); assay type: cell-based, human; conditions: antagonist 12 µM, exogenous adenosine
Method: Similar experimental setup was performed as the extracellular ADO uptake assay. Cells were harvested after 2 days of CD3/CD28 bead stimulation before treatment with PMA/ionomycin (Sigma Aldrich) and golgi-inhibitors (BD biosciences). After 3 hours of subsequent incubation, intracellular staining was performed for IFNy and perforin (online supplemental table 1).
(§1) Figure 4 Rescue of lymphocyte proinflammatory cytokine production IFNy and perforin by A2BAR antagonism. (A,B) Inhibition of extracellular adenosine uptake via phosphorylated-AMP activated protein kinase (pAMPK) staining (n=7 healthy donors). Production of proinflammatory cytokines—(C,D) IFNy and (E) perforin in CD4 (n=5 healthy donors) and CD8 (n=6 healthy donors) T cells. Expression of CD69 adhesion molecule in (F). CD4 (n=7 healthy donors) and (G) CD8 (n=4 healthy donors) T cells. A2BAR antagonist 12 µM was added. Outlier is presented as diamond shape and defined by Tukey’s rule, which is not included in statistical analysis. Box plots with minimum, first quartile, median, third quartile, and maximum are presented. Normalized fold change is based on percent values compared with untreated controls. Unpaired and non-parametric statistical analysis—Mann-Whitney test was performed against untreated control with *p<0.05, **p<0.01, ***p<0.001, and ****p<0.0001.

[4] = system: autologous TILs and patient-derived sarcoma spheroids; test: Spheroid infiltration by autologous TILs (real-time imaging and flow cytometry); assay type: cell-based, human; conditions: antagonist 12 µM, 3 days, n=8 donors, not statistically significant
Method: Spheroids were prepared using patient-derived sarcoma cell lines. 1×10^4 cells were seeded per well in 96-well ultra-low attachment plate with DMEM-F12 media containing 20% FBS and 1% PS for 5 days. 3×10^4 CSFE-labeled autologous expanded TILs, at Effector:target ratio of 3:1, were added to the spheroid at day five with A2BAR antagonism treatment at 12 µM. After 3 days, spheroid was removed and split into two groups—IN and OUT. […] Spheroids were washed with PBS at least two times. GentleMACS tumor dissociation kit (Miltenyi Biotec) was used to digest the spheroids for FC analysis.
Brightfield and phase contrast images under 4X objective were acquired every 6 hours on IncuCyte S3 system (Essen BioScience). For breast cancer patient-derived spheroid culture, 1×10^4 cells per well were seeded with A2BAR antagonist at 12 µM treatment for 6 days real time imaging. For spheroid infiltration, after the addition of CSFE-labeled autologous expanded TILs and treatment with A2BAR antagonist at 12 µM, green fluorescence images were acquired for 3 days. All spheroid invasion analysis was performed using top hat segmentation with IncuCyte software.
Cell surface was stained with mouse monoclonal antihuman antibodies against CD3, CD4, CD8, CD45RA, CD56 and CD19 listed in online supplemental table 1. Cell surface antibodies and live/dead (L/D) marker were incubated with samples at 4°C for 20 min after washing two times with flow cytometry buffer containing 5% FBS in PBS. For spheroid infiltrated TIL phenotyping, digested IN and OUT spheroids were stained with cell surface marker and analyzed on NovoCyte (ACEA Bioscience) with the use of FlowJo software (Tree Star) by gating single cell based on forward and side scatters. A representative gating strategy for CD8 naïve T cells is shown in online supplemental figure 3A. Compensated flow cytometry standard (FCS) files with only live cells were concatenated for downstream tSNE analysis using the ‘cytofkit’ R package (https://github.com/JinmiaoChenLab/cytofkit).
Figure 6 Infiltration of TILs into autologous patient-derived sarcoma spheroids after A2BAR antagonist treatment. (A) Representative real-time imaging of spheroid TIL infiltration over 3 days under 4× objective. Green areas demarcate CFSE-labeled TILs infiltrated into the red boundary tumor spheroid. (B) Relative TIL infiltration into autologous spheroids (n=8 donors) measured by flow cytometer. Antagonist 12 µM was added with CSFE-labeled TILs after spheroid formation on day five. (C) Representative flow cytometry plot of CFSE positive TILs in CD73+ tumor spheroid. (D) tSNE analysis and (E) annotated pie chart of TILs within (IN) and outside of (OUT) the spheroids without treatment (n=8 donors, indicated within the pie chart). Wilcoxon Rank Sum test was performed to compare the various IN vs OUT adhesion markers. Expression of (F) CD3 T cells, (G) CD49a+ CD103+ among CD8 T cells and (H) CD69 MFI among CD4 T cells IN and OUT of the spheroids without treatment (n=8 donors). (I) Relative CD8/CD4 TIL ratio IN the spheroids. Differential expression of relative (J–L). CD49a+ CD103+ cells IN the spheroids (n=8 donors) of CD3, CD8, and CD4 TILs. Antagonist 12 µM was added for J–L. Outlier is presented as diamond shape and defined by Tukey’s rule, which is not included in statistical analysis. Box plots with minimum, first quartile, median, third quartile, and maximum are presented. Unpaired and non-parametric statistical analysis—Mann-Whitney test was performed against untreated control with *p<0.05, **p<0.01, ***p<0.001, and ****p<0.0001. CFSE, carboxyfluorescein succinimidyl ester; TIL, tumor infiltrating lymphocyte; tSNE, T-distributed stochastic neighboring embedding. TEXT PRINTED IN THE PICTURE: (C) ISAM-R56A: TILs 13.0 DOUBTS OF THE COPYIST ABOUT THIS PICTURE: Panel C, ISAM-R56A, TILs: the print is small, 13.0 could be 13.8 or 13.6 / Panel C also prints a gate label 'TILs 3.17' for the Untreated control. […]

[5] = system: pAMPK in CD4 and CD8 T cells; test: Extracellular ADO uptake assay via pAMPK staining; assay type: cell-based, human; conditions: antagonist 12 µM, 50 µM exogenous adenosine, n=7 healthy donors
Method: Experimental setup was adopted from a previous study whereby AR antagonist was added to pretreat cells before exogenous adenosine treatment for intracellular and cytokine staining.[37] In brief, PBMCs were treated with 12 µM of A2BAR antagonists for 90 min before the addition of 50 µM of adenosine for 2 hours. Cells were harvested after 3 hours of CD3/CD28 bead stimulation before intracellular staining with phosphor-AMPK (Thr183, Thr172) rabbit primary antibody (Thermo Fisher Scientific) and antirabbit secondary antibody (BD biosciences).
as §1

## CC1=C(C(=O)OC(C)C)C(c2ccco2)NC(=NC#N)N1 (stereo not shown) [SY1KO-24]
[1]
  Rescue of lymphocyte (T and NK cell) proliferation: None of the other A2BAR antagonists (SY1AF–30, SY1AF–80 and SY1KO–24) had any measurable impact
hA2B (A2BAR)
  Kb: 116 nM

## CC1=C(C(=O)OC(C)C)C(c2ccco2)NC(=S)N1 (stereo not shown) [SY1AF-30]
[1]
  Rescue of lymphocyte (T and NK cell) proliferation: None of the other A2BAR antagonists (SY1AF–30, SY1AF–80 and SY1KO–24) had any measurable impact
[2]
  Rescue of naïve and effector (CD45RA+) CD8 T cell proliferation in adenosine-producing sarcoma spheroids: significantly rescued
hA2B (A2BAR)
  Kb: 4.72 nM
[3]
  IFNy production by T cells on adenosine suppression (subset not given): significantly improved
  Perforin production by CD8 T cells on adenosine suppression: significantly improved

## Cc1cc(-c2nnc(N)nc2-c2ccc(F)cc2)cc(Cl)n1 [AZD-4635, reference compound]
[1]
  Rescue of lymphocyte (T and NK cell) proliferation: did not restore the proliferation
[4]
  Median increased TIL infiltration vs untreated: 20%

## CCOC(=O)C1=C(C)NC(=O)NC1c1ccsc1 (stereo not shown) [SY1AF-80]
[1]
  Rescue of lymphocyte (T and NK cell) proliferation: None of the other A2BAR antagonists (SY1AF–30, SY1AF–80 and SY1KO–24) had any measurable impact
[2]
  Rescue of naïve and effector (CD45RA+) CD8 T cell proliferation in adenosine-producing sarcoma spheroids: significantly rescued
[5]
  pAMPK (extracellular ADO uptake) in CD4 T cells: significantly inhibited ADO uptake
hA2B (A2BAR)
  Kb: 25.2 nM
